Results taken from ChEMBL document CHEMBL5506074, “Discovery and Optimization of Tetrahydroisoquinoline Derivatives To Enhance Lysosome Biogenesis as Preclinical Candidates for the Treatment of Alzheimer's Disease” (J Med Chem, 2024).
Activity calls are given as the source filed them. The rule behind the calls is not given here.

What was measured:
[1] = system: HeLa; assay: Upregulation of CTSF mRNA expression in human HeLa cells at 10 uM incubated for 24 hrs by qRT-PCR analysis; type: functional, cell-based
[2] = system: HeLa; assay: Upregulation of CTSD mRNA expression in TFEB knockout human HeLa cells at 10 uM incubated for 24 hrs by qRT-PCR analysis; type: functional, cell-based
[3] = Acute toxicity in C57BL/6J mouse assessed as change in body weight at 50 mg/kg, ip measured upto 14 days; type: organism-based; details: in vivo, 336 h, time < 14 day
[4] = system: HeLa; assay: Upregulation of HEXA mRNA expression in human HeLa cells at 10 uM incubated for 24 hrs by qRT-PCR analysis; type: functional, cell-based
[5] = Induction of TFEB nuclear translocation in human HeLa cells expressing EGFP at 30 uM measured at 3 hrs by fluorescence microscopic analysis; type: functional
[6] = system: HeLa; assay: Upregulation of ATG2A mRNA expression in human HeLa cells at 10 uM incubated for 24 hrs by qRT-PCR analysis; type: functional, cell-based
[7] = system: HeLa; assay: Upregulation of LAMP1 mRNA expression in human HeLa cells at 10 uM incubated for 24 hrs by qRT-PCR analysis; type: functional, cell-based
[8] = Half life in ICR mouse at 20 mg/kg, po measured upto 24 hrs by LC-MS/MS analysis; type: ADME, organism-based; details: in vivo
[9] = system: HeLa; assay: Induction of cell cycle arrest in human HeLa cells assessed as effect on CDK4 level at 10 uM incubated for 12 hrs by qRT-PCR analysis; type: functional, cell-based
[10] = AUC (0 to t) in ICR mouse at 20 mg/kg, po measured upto 24 hrs by LC-MS/MS analysis; type: ADME, organism-based; details: in vivo
[11] = system: HeLa; assay: Upregulation of UVRAG mRNA expression in human HeLa cells at 10 uM incubated for 24 hrs by qRT-PCR analysis; type: functional, cell-based
[12] = system: HeLa; assay: Upregulation of GLA mRNA expression in human HeLa cells at 10 uM incubated for 24 hrs by qRT-PCR analysis; type: functional, cell-based
[13] = system: Mus musculus; assay: Anti-alzheimer activity against APP/PS1 mouse model assessed as reduction in amyloid beta plaque in hippocampus at 10 mg/kg, ip administered for 30 days; type: functional; parameters: scale not given: the % may be the effect or the level left; details: time 30 day
[14] = system: HeLa; assay: Upregulation of […] mRNA expression in TFEB knockout human HeLa cells at 10 uM incubated for 24 hrs by qRT-PCR analysis; type: functional, cell-based
[15] = Clearance in ICR mouse at 5 mg/kg, iv measured upto 24 hrs by LC-MS/MS analysis; type: ADME, organism-based; details: in vivo
[16] = system: HeLa; assay: Upregulation of LC3B mRNA expression in human HeLa cells at 10 uM incubated for 24 hrs by qRT-PCR analysis; type: functional, cell-based
[17] = system: Mus musculus; assay: Anti-alzheimer activity against APP/PS1 mouse model assessed as upregulation of LAMP1 mRNA expression in brain at 10 mg/kg, ip administered for 30 days; type: functional, organism-based; details: time 30.0 day
[18] = system: HeLa; assay: Upregulation of UVRAG mRNA expression in TFEB knockout human HeLa cells at 10 uM incubated for 24 hrs by qRT-PCR analysis; type: functional, cell-based
[19] = Volume of distribution at steady state in ICR mouse measured upto 24 hrs by LC-MS/MS analysis; type: ADME; details: in vivo, read-out: Vdss
[20] = Bioavailability in ICR mouse at 5 mg/kg, ip measured upto 24 hrs by LC-MS/MS analysis; type: ADME, organism-based; details: in vivo
[21] = Ratio of drug concentration in ICR mouse brain to plasma at 5 mg/kg, iv measured upto 24 hrs by LC-MS/MS analysis; type: ADME, organism-based; details: brain and plasma, read-out: BPR
[22] = Cmax in ICR mouse at 10 mg/kg, ip measured upto 24 hrs by LC-MS/MS analysis; type: ADME, organism-based; details: in vivo
[23] = system: HeLa; assay: Upregulation of CTSF mRNA expression in TFEB knockout human HeLa cells at 10 uM incubated for 24 hrs by qRT-PCR analysis; type: functional, cell-based
[24] = system: HeLa; assay: Upregulation of CTSD mRNA expression in human HeLa cells at 10 uM incubated for 24 hrs by qRT-PCR analysis; type: functional, cell-based
[25] = target: Cyclin-dependent kinase 9 (Homo sapiens) (UniProt P50750); assay: Inhibition of CDK9 in human SH-SY5Y cells assessed as decrease in Rpb1 phosphorylation at 10 uM incubated for 6 hrs by immunoblotting analysis; type: cell-based
[26] = target: T1, Sodium-dependent dopamine transporter (Homo sapiens, UniProt Q01959); assay: Displacement of [3H] dopamine from DAT in HEK293 cells incubated for 1 hr by topcount plate reader analysis; type: cell-based
[27] = AUC (0 to t) in ICR mouse at 10 mg/kg, ip measured upto 24 hrs by LC-MS/MS analysis; type: ADME, organism-based; details: in vivo
[28] = system: HeLa; assay: Induction of cell cycle arrest in human HeLa cells assessed as effect on LAMP1 level at 10 uM incubated for 12 hrs by qRT-PCR analysis; type: functional, cell-based
[29] = target: T1, Sodium-dependent dopamine transporter; assay: Displacement of [3H] dopamine from DAT in HEK293 cells incubated for 15 mins by microbeta analysis; type: cell-based
[30] = target: T1, Sodium-dependent dopamine transporter; assay: Displacement of [3H] dopamine from DAT in HEK293 cells assessed as inhibition constant incubated for 1 hr by topcount plate reader analysis; type: cell-based
[31] = system: HeLa; assay: Induction of lysosome biogenesis in human HeLa cells assessed as increase in number of acidified lysosomes at 10 uM incubated for 24 hrs by LysiTracker red staining based flow cytometry analysis; type: functional, cell-based
[32] = Tmax in ICR mouse at 20 mg/kg, po measured upto 24 hrs by LC-MS/MS analysis; type: ADME, organism-based; details: in vivo

T1 sequence (Q01959 whole entry): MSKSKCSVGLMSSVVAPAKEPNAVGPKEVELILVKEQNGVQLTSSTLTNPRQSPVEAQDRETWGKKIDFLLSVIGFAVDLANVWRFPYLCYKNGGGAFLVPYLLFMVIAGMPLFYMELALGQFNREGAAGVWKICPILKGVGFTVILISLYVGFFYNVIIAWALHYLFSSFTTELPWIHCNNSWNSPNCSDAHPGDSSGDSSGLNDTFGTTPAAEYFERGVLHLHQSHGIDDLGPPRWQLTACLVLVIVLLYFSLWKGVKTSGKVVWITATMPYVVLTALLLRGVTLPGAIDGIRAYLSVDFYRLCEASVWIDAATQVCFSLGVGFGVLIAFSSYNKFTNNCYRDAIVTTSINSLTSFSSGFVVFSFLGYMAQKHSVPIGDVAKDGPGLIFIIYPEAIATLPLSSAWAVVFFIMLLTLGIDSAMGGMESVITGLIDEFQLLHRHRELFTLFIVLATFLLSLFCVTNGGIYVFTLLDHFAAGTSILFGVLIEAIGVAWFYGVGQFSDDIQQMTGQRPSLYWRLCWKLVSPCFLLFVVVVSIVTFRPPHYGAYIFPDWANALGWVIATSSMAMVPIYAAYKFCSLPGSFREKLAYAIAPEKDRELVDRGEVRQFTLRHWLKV
Chain of Cyclin-dependent kinase 9 (Homo sapiens) (P50750 whole entry): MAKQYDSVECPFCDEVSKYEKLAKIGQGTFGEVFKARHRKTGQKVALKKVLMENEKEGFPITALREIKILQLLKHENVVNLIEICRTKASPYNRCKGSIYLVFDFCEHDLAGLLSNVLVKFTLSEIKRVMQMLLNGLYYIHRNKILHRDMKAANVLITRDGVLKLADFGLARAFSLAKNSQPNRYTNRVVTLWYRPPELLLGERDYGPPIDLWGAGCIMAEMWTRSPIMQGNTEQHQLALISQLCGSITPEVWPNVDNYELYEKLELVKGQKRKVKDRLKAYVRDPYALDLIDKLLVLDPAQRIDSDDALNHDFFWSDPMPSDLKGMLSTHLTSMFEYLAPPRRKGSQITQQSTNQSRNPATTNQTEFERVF

| Structure (SMILES) | Activity [1] | Activity [2] | Activity [3] | Activity [4] | Activity [5] [%] | Activity [6] | Activity [7] | half-life [8] [min] | Activity [9] | Activity [11] | Activity [12] | Activity [13] [%] | Activity [14] | clearance [15] [mL/min/kg] | Activity [16] | Activity [17] | Activity [18] | Vd [19] [L/kg] | bioavailability [20] [%] | Kp at 24 h [21] | also measured |
| --- | --- | --- | --- | --- | --- | --- | --- | --- | --- | --- | --- | --- | --- | --- | --- | --- | --- | --- | --- | --- | --- |
| c1ccc2c(CCC3NCCc4cc5c(cc43)OCO5)c[nH]c2c1 (stereo not given) | Active | Active | Non-Toxic | Active | 97 | Active | Active | 186 | inactive | Active | Active | 67.5 | Active | 30.3 | Active | Active | Active | 4.51 | 115 | 2.8 | AUC(0-t) at 24 h ([10]; ICR): 17100 ng·h/mL; Cmax [22]: 4720 ng/mL; Activity [23]: Active; Activity [24]: Active; inhibition [25]: Active; IC50 [26]: 2150 nM; AUC(0-t) at 24 h [27]: 7640 ng·h/mL; Activity [28]: inactive; IC50 [29]: 6.34 µM; Ki [30]: 680 nM; Activity [31]: Active; Tmax [32]: 34.8 min |
| Fc1ccc2[nH]cc(CCC3c4cc5c(cc4CCN3CC3CCOCC3)OCO5)c2c1 (stereo not given) | Active | Active | Non-Toxic | Active | 94 | Active | Active | 142 | inactive | Active | Active | 69.8 | Active | 204 | Active | Active | Active | 36.8 | 25.7 | 6.9 | AUCt ([10]; po, 20 mg/kg, 24 h): 17.4 ng·h/mL; Cmax [22]: 146 ng/mL; Activity [23]: Active; Activity [24]: Active; inhibition [25]: Active; AUC(0-t) at 24 h [27]: 210 ng·h/mL; Activity [28]: inactive; Tmax [32]: 25.2 min |
